Data taken from patent US12065404B2, “C4-carboxylic acid-substituted tryptamine derivatives and methods of using” (priority 2022, dated 2024).
Several values for one entry are separate records, joined by “and”; a condition that tells them apart may be missing. Equal values may be shown once. Entries after “also recorded” stand apart in the source; their conditions may differ.

How the values were obtained:
[1] = molecular target: GABAA (Homo sapiens, UniProt P14867+P18507+P47870); type: cell-based; settings: ion channel
[2] = Mouse pharmacokinetic (PK) study, parent compound and psilocin metabolite in plasma; type: in vivo, C57Bl/6 mice; settings: for bioavailability: male, C57Bl/6, mouse, plasma, po
Source text: Briefly, the procedure was as follows. […] 19, 2022.

[3] = molecular target: T1, neuronal 5-HT2A receptor (5-HT2AR) (Mus musculus, UniProt P35363); assay: Drug-induced Head Twitch Response (HTR) in mice; type: in vivo, C57BL/6-Elite mice; settings: 1 mg/kg i.p., 15-to-30-minute window post-drug, relative to vehicle-treated control mice
T1 construct: HTR was measured in mice treated with a control and test compounds; tissue Charles River; host or cells: live C57BL/6-Elite mice (neuronal receptor)

[4] = molecular target: T2, 5-HT1A receptor (Homo sapiens, UniProt P08908); assay: cAMP-Glo assay of 5-HT1A receptor modulation, +5-HT1A (CHO-K1/5-HT1A/Ga15) vs -5-HT1A (CHO-K1/Ga15) cells; type: cell-based; parameters: dose or concentration left out as unconfirmed; settings: +5-HT1A vs -5-HT1A cell cultures stimulated with forskolin, increasing ligand concentrations
T2 construct: host or cells: CHO-K1 (co-expressing Ga15)
T2 sequence (P08908 1-422): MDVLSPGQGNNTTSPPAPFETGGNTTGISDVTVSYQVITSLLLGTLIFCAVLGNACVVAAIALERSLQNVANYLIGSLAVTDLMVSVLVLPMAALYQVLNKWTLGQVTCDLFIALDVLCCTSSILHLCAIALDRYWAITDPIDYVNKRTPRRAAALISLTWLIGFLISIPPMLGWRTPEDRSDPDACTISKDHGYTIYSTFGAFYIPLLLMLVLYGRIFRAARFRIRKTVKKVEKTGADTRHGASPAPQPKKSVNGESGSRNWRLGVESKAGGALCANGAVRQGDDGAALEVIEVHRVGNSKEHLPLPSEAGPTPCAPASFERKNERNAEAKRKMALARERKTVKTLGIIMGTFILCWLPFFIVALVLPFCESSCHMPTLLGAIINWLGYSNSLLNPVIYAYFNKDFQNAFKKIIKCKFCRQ

[5] = administered compound itself in plasma, 1 mg/kg i.v., individual animals, 1 mg/kg
[6] = administered compound itself in plasma, 1 mg/kg i.v., mean ± SD
[7] = administered compound itself in plasma, 1 mg/kg oral, individual animals, 1 mg/kg
[8] = administered compound itself in plasma, 1 mg/kg oral, mean ± SD
[9] = administered compound itself in plasma, 3 mg/kg oral, individual animals, 3 mg/kg
[10] = administered compound itself in plasma, 3 mg/kg oral, mean ± SD
[11] = plasma C(XX), 3 mg/kg p.o. C(XX), mean
[12] = plasma C(XX), 10 mg/kg oral C(XX), animals M58-M60, 10 mg/kg
[13] = plasma C(XX), 10 mg/kg oral C(XX), mean (n = 2)
[14] = plasma C(XX), 10 mg/kg oral C(XX), mean ± SD
[15] = plasma C(XX), 10 mg/kg oral C(XX), mean ± SD, 10 mg/kg

GABAA, sequence (P14867 28-456): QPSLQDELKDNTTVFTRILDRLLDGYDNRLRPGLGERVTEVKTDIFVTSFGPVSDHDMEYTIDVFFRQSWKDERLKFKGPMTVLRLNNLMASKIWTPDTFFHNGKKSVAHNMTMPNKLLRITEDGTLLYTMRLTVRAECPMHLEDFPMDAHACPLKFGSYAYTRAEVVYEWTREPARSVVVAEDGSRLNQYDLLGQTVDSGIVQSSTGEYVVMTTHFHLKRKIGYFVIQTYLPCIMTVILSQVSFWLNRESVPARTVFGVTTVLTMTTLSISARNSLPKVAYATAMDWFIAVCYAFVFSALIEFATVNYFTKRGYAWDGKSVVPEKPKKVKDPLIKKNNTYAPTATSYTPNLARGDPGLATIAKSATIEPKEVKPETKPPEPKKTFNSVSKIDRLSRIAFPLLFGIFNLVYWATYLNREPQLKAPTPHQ
GABAA, sequence (P47870 26-512): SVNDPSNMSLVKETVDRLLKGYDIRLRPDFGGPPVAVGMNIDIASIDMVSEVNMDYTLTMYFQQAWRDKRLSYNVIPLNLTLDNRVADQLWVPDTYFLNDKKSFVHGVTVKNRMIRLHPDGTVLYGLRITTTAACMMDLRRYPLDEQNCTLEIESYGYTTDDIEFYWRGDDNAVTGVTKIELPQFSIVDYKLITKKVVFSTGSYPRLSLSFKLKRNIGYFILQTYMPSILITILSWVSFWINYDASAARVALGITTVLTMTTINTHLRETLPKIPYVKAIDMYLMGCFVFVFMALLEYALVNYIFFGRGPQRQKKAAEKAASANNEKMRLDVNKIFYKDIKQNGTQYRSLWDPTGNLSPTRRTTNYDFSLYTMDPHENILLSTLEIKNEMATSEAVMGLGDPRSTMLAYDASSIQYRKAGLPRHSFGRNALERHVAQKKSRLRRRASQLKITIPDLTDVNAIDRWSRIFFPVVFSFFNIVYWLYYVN
GABAA, sequence (P18507 40-475): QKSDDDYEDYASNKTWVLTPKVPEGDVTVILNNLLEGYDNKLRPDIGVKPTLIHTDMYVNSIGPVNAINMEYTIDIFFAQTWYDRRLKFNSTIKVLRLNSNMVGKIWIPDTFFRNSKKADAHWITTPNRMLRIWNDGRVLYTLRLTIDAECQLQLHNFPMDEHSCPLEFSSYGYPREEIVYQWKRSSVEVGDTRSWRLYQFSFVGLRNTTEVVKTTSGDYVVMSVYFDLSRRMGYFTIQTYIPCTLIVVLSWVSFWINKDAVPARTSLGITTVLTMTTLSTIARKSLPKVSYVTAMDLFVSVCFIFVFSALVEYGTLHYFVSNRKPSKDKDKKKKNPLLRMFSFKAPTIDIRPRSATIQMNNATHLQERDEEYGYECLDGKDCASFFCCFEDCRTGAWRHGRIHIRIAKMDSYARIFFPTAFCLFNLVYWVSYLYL
T1 sequence (P35363 whole entry): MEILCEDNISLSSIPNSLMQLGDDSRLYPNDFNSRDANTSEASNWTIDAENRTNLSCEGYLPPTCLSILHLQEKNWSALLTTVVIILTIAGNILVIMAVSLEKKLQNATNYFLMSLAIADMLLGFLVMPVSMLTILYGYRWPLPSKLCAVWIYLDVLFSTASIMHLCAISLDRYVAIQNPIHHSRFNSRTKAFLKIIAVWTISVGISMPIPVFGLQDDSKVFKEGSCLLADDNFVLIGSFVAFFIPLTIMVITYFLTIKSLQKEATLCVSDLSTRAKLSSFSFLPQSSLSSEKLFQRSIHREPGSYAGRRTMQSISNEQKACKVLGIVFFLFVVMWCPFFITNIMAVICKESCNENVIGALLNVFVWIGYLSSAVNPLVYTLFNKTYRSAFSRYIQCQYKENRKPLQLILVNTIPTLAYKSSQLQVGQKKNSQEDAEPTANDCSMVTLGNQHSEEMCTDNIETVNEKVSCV

## CN(C)CCc1c[nH]c2cccc(OC(=O)c3cccc4c3OCCO4)c12 [C(XX)]
[1]; blocker (BL)
  IC50: > 100 µM
[1]; opener (OP)
  EC50: > 100 µM
[2]; 1 mg/kg i.v. C(XX), 5 min, individual animals
  Plasma concentration of C(XX): 152 ng/mL and 105 ng/mL
[2]; 1 mg/kg i.v. C(XX), 0.25 h, individual animals
  Plasma concentration of C(XX): 84.7 ng/mL and 60.3 ng/mL
[2]; 1 mg/kg i.v. C(XX), 0.5 h, individual animals
  Plasma concentration of C(XX): 37.9 ng/mL and 32.1 ng/mL
[2]; 1 mg/kg i.v. C(XX), 1 h, individual animals
  Plasma concentration of C(XX): 8.13 ng/mL and 8.22 ng/mL
[2]; 1 mg/kg i.v. C(XX), 2 h, individual animals
  Plasma concentration of C(XX): 1.03 ng/mL and 1.14 ng/mL
[2]; 1 mg/kg i.v. C(XX), 4 h, individual animals
  Plasma concentration of C(XX): 0.137 ng/mL and 0.148 ng/mL
[2]; 1 mg/kg i.v. C(XX), 6 h, individual animals
  Plasma concentration of C(XX): BLQ (BLQ denotes below the lower limit of quantitation (0.25 ng/mL).)
[2]; 1 mg/kg i.v. C(XX), 8 h, animals M49-M51
  Plasma concentration of psilocin: BLQ (BLQ denotes below the lower limit of quantitation (0.5 ng/mL).)
[2]; 1 mg/kg i.v. C(XX), 8 h, individual animals
  Plasma concentration of C(XX): BLQ (BLQ denotes below the lower limit of quantitation (0.25 ng/mL).) and No (2×)
[2]; 1 mg/kg oral C(XX), 0.25 h, individual animals
  Plasma concentration of C(XX): 0.459 ng/mL and 0.648 ng/mL
[2]; 1 mg/kg oral C(XX), 0.5 h, individual animals
  Plasma concentration of C(XX): 0.509 ng/mL and 0.648 ng/mL
[2]; 1 mg/kg oral C(XX), 1 h, individual animals
  Plasma concentration of C(XX): 0.286 ng/mL and 0.199 ng/mL
[2]; 1 mg/kg oral C(XX), 2 h, individual animals
  Plasma concentration of C(XX): BLQ (BLQ denotes below the lower limit of quantitation (0.25 ng/mL).)
[2]; 1 mg/kg oral C(XX), 4 h, individual animals
  Plasma concentration of C(XX): BLQ (BLQ denotes below the lower limit of quantitation (0.25 ng/mL).)
[2]; 1 mg/kg oral C(XX), 6 h, individual animals
  Plasma concentration of C(XX): No Peak; also recorded: BLQ (BLQ denotes below the lower limit of quantitation (0.25 ng/mL).)
[2]; 1 mg/kg oral C(XX), 8 h, individual animals
  Plasma concentration of C(XX): No Peak; also recorded: BLQ (BLQ denotes below the lower limit of quantitation (0.25 ng/mL).)
[2]; 1 mg/kg oral C(XX), 24 h, animals M52-M54
  Plasma concentration of psilocin: BLQ (BLQ denotes below the lower limit of quantitation (0.5 ng/mL).)
[2]; 1 mg/kg oral C(XX), 24 h, individual animals
  Plasma concentration of C(XX): No Peak
[2]; 3 mg/kg oral C(XX), 0.25 h, individual animals
  Plasma concentration of C(XX): 1.72 ng/mL and 1.93 ng/mL
[2]; 3 mg/kg oral C(XX), 0.5 h, individual animals
  Plasma concentration of C(XX): 1.13 ng/mL and 1.43 ng/mL
[2]; 3 mg/kg oral C(XX), 1 h, individual animals
  Plasma concentration of C(XX): 0.752 ng/mL and 0.535 ng/mL
[2]; 3 mg/kg oral C(XX), 2 h, individual animals
  Plasma concentration of C(XX): 0.244 ng/mL and 0.156 ng/mL
[2]; 3 mg/kg oral C(XX), 4 h, individual animals
  Plasma concentration of C(XX): No Peak; also recorded: BLQ (BLQ denotes below the lower limit of quantitation (0.25 ng/mL).)
[2]; 3 mg/kg oral C(XX), 6 h, individual animals
  Plasma concentration of C(XX): No Peak; also recorded: BLQ (BLQ denotes below the lower limit of quantitation (0.25 ng/mL).)
[2]; 3 mg/kg oral C(XX), 8 h, individual animals
  Plasma concentration of C(XX): No Peak; also recorded: BLQ (BLQ denotes below the lower limit of quantitation (0.25 ng/mL).)
[2]; 3 mg/kg oral C(XX), 24 h, animals M55-M57
  Plasma concentration of psilocin: BLQ (BLQ denotes below the lower limit of quantitation (0.5 ng/mL).)
[2]; 3 mg/kg oral C(XX), 24 h, individual animals
  Plasma concentration of C(XX): No Peak
[2]; 3 mg/kg oral, no footnote on basis (Table 36B), individual animals
  F(%): 1.08% and 0.962%
[2]; 10 mg/kg oral C(XX), 0.25 h, individual animals
  Plasma concentration of C(XX): 2.99 ng/mL and 9.12 ng/mL and 10.3 ng/mL
[2]; 10 mg/kg oral C(XX), 0.5 h, individual animals
  Plasma concentration of C(XX): 2.79 ng/mL and 3.87 ng/mL and 5.79 ng/mL
[2]; 10 mg/kg oral C(XX), 1 h, individual animals
  Plasma concentration of C(XX): 1.69 ng/mL and 2.74 ng/mL
[2]; 10 mg/kg oral C(XX), 2 h, individual animals
  Plasma concentration of C(XX): 0.707 ng/mL and 0.533 ng/mL and 1.08 ng/mL
[2]; 10 mg/kg oral C(XX), 4 h, individual animals
  Plasma concentration of C(XX): BLQ (BLQ denotes below the lower limit of quantitation (0.25 ng/mL).) and 0.302 ng/mL
[2]; 10 mg/kg oral C(XX), 6 h, individual animals
  Plasma concentration of C(XX): 0.524 ng/mL and BLQ (BLQ denotes below the lower limit of quantitation (0.25 ng/mL).) and 0.196 ng/mL
[2]; 10 mg/kg oral C(XX), 8 h, individual animals
  Plasma concentration of C(XX): BLQ (BLQ denotes below the lower limit of quantitation (0.25 ng/mL).) and 0.185 ng/mL
[2]; 10 mg/kg oral C(XX), 24 h, animals M58-M60
  Plasma concentration of psilocin: BLQ (BLQ denotes below the lower limit of quantitation (0.5 ng/mL).)
[2]; 10 mg/kg oral C(XX), 24 h, individual animals
  Plasma concentration of C(XX): No Peak
[2]; [5]
  AUC0-inf: 62.5 ng·h/mL and 48.1 ng·h/mL
  AUC0-inf/Dose: 48.3 kg·ng·h/mL/mg and 62.5 kg·ng·h/mL/mg and 48.1 kg·ng·h/mL/mg
  AUC0-tlast: 62.4 ng·h/mL and 48.0 ng·h/mL
  AUC0-tlast/Dose: 48.1 kg·ng·h/mL/mg and 62.4 kg·ng·h/mL/mg and 48.0 kg·ng·h/mL/mg
  Apparent t1/2: 31.7 min and 32.2 min
  C0: 204 ng/mL and 139 ng/mL
  CL: 266.52 mL/min/kg and 346.28 mL/min/kg
  MRT0-inf: 22 min and 25.7 min
  Vss: 5.874 L/kg and 8.913 L/kg
[2]; [6]
  AUC0-inf/Dose: 53.0 ± 8.26 kg·ng·h/mL/mg
  AUC0-tlast/Dose: 52.8 ± 8.30 kg·ng·h/mL/mg
  MRT0-inf: 24.7 ± 2.27 min
[2]; [7]
  Cmax: 0.509 ng/mL and 0.648 ng/mL
  Cmax/Dose: 0.702 kg·ng/mL/mg and 0.509 kg·ng/mL/mg and 0.648 kg·ng/mL/mg
  tmax: 15 min
[2]; [8]
  Cmax: 0.620 ± 0.0996 ng/mL
  Cmax/Dose: 0.620 ± 0.0996 kg·ng/mL/mg
[2]; [9]
  AUC0-inf: 1.72 ng·h/mL and 1.53 ng·h/mL
  AUC0-inf/Dose: 0.433 kg·ng·h/mL/mg and 0.572 kg·ng·h/mL/mg and 0.510 kg·ng·h/mL/mg
  AUC0-tlast: 1.48 ng·h/mL and 1.42 ng·h/mL
  AUC0-tlast/Dose: 0.406 kg·ng·h/mL/mg and 0.494 kg·ng·h/mL/mg and 0.474 kg·ng·h/mL/mg
  Apparent t1/2: 40.1 min and 28.9 min
  Cmax: 1.72 ng/mL and 1.93 ng/mL
  Cmax/Dose: 0.497 kg·ng/mL/mg and 0.573 kg·ng/mL/mg and 0.643 kg·ng/mL/mg
  MRT0-inf: 64.8 min and 49.4 min
[2]; [10]
  AUC0-inf: 1.51 ± 0.210 ng·h/mL
  AUC0-inf/Dose: 0.505 ± 0.0700 kg·ng·h/mL/mg
  AUC0-tlast: 1.37 ± 0.137 ng·h/mL
  AUC0-tlast/Dose: 0.458 ± 0.0457 kg·ng·h/mL/mg
  Cmax: 1.71 ± 0.220 ng/mL
  Cmax/Dose: 0.571 ± 0.0734 kg·ng/mL/mg
[2]; 3 mg/kg, 3 mg/kg oral, no footnote on basis (Table 36B), individual animals
  bioavailability: 0.816%
[2]; 3 mg/kg, 3 mg/kg oral, no footnote on basis (Table 36B), mean ± SD
  bioavailability: 0.953 ± 0.132%
[2]; plasma C(XX), 1 mg/kg i.v. C(XX), mean
  AUC0-tlast/Dose: 52.8 kg·ng·h/mL/mg
[2]; plasma C(XX), 1 mg/kg p.o. C(XX), mean
  Cmax/Dose: 0.620 kg·ng/mL/mg
[2]; [11]
  AUC0-tlast/Dose: 0.458 kg·ng·h/mL/mg
  Cmax/Dose: 0.571 kg·ng/mL/mg
  F: 0.953%
[2]; plasma C(XX), 10 mg/kg oral C(XX), animals M58-M60
  tmax: 15 min
[2]; [12]
  AUC0-inf: 5.40 ng·h/mL and 10.7 ng·h/mL
  AUC0-tlast: 5.65 ng·h/mL and 4.99 ng·h/mL and 9.16 ng·h/mL
  AUC0-tlast/Dose: 0.565 kg·ng·h/mL/mg and 0.499 kg·ng·h/mL/mg and 0.916 kg·ng·h/mL/mg
[2]; plasma C(XX), 10 mg/kg oral C(XX), animals M58-M60, AUC0-tlast used, 10 mg/kg
  F: 1.07% and 0.941% and 1.73%
[2]; [13]
  AUC0-inf: 8.03 ng·h/mL
  Apparent t1/2: 186 min
  MRT0-inf: 131 min
[2]; [14]
  AUC0-tlast: 6.60 ± 2.24 ng·h/mL
  Cmax: 7.47 ± 3.92 ng/mL
  tmax: 15 ± 0 min
[2]; [15]
  AUC0-tlast/Dose: 0.660 ± 0.224 kg·ng·h/mL/mg and 0.660 kg·ng·h/mL/mg
  Cmax/Dose: 0.747 ± 0.392 kg·ng/mL/mg and 0.747 kg·ng/mL/mg
[2]; plasma C(XX), 10 mg/kg oral C(XX), mean ± SD, AUC0-tlast used, 10 mg/kg
  F: 1.24 ± 0.423% and 1.24%
[3]
  Incidences of Head Twitch Response (HTR): Elevated incidences of HTR
[4]
  5-HT1A receptor modulation (reduction of cAMP levels): significant receptor modulation
